Legend:
Assay type in all cases: cell-based
[1] = tested on: A-549; test: SRB colorimetric cell growth inhibition assay, A-549; settings: Homo sapiens, A549, A-549; for GI50: GI=growth inhibition, read-out: GI50 A-549; for CC50: cell killing (cytotoxic effect), read-out: LC50 A-549; for IC (TGI): total growth inhibition (cytostatic effect), read-out: TGI A-549
Summary of the method: (§1)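 Cancer cells grown in vitro were continuously treated with compound. Cell mass was then determined by SRB staining and expressed as growth inhibition.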

[2] = tested on: PANC-1; test: SRB colorimetric cell growth inhibition assay, PANC-1; settings: Homo sapiens, PANC-1, PANC-1; for GI50: GI=growth inhibition, read-out: GI50 PANC-1; for CC50: cell killing (cytotoxic effect), read-out: LC50 PANC-1; for IC (TGI): total growth inhibition (cytostatic effect), read-out: TGI PANC-1
Summary of the method: as §1

[3] = tested on: LoVo-Dox; test: SRB colorimetric cell growth inhibition assay, LoVo-Dox (MDR); settings: Homo sapiens, LOVO-DOX; for GI50: GI=growth inhibition, read-out: GI50 LOVO-DOX; for CC50: cell killing (cytotoxic effect), read-out: LC50 LOVO-DOX; for IC (TGI): total growth inhibition (cytostatic effect), read-out: TGI LOVO-DOX
Summary of the method: as §1

[4] = tested on: LoVo; test: SRB colorimetric cell growth inhibition assay, LoVo; settings: Homo sapiens, LoVo; for GI50: GI=growth inhibition, read-out: GI50 LOVO; for CC50: cell killing (cytotoxic effect), read-out: LC50 LOVO; for IC (TGI): total growth inhibition (cytostatic effect), read-out: TGI LOVO
Summary of the method: as §1

[5] = tested on: LNCaP; test: SRB colorimetric cell growth inhibition assay, LNCaP; settings: Homo sapiens, LNCaP, LN-caP; for GI50: GI=growth inhibition, read-out: GI50 LN-caP; for CC50: LC=cell killing (cytotoxic effect), read-out: LC50 LN-caP; for IC (TGI): TGI=total growth inhibition (cytostatic effect), read-out: TGI LN-caP
Summary of the method: as §1

[6] = tested on: SK-BR-3; test: SRB colorimetric cell growth inhibition assay, SK-BR-3; settings: Homo sapiens, SK-BR-3, SK-BR-3; for GI50: GI=growth inhibition, read-out: GI50 SK-BR-3; for CC50: LC=cell killing (cytotoxic effect), read-out: LC50 SK-BR-3; for IC (TGI): TGI=total growth inhibition (cytostatic effect), read-out: TGI SK-BR-3
Summary of the method: as §1

[7] = tested on: SKOV-3; test: SRB colorimetric cell growth inhibition assay, SKOV-3; settings: Homo sapiens; for GI50: SK-OV-3, SKOV-3, GI=growth inhibition, read-out: GI50 SKOV-3; for CC50 / IC (TGI): SK-OV-3, SKOV-3; for CC50: LC=cell killing (cytotoxic effect), read-out: LC50 SKOV-3; for IC (TGI): TGI=total growth inhibition (cytostatic effect), read-out: TGI SKOV-3
Summary of the method: (§2)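 SRB colorimetric readout of cell growth/viability in 96-well format. Means ± SD from triplicate wells; GI (growth inhibition), TGI (total growth inhibition, cytostatic) and LC (cell killing, cytotoxic) parameters derived.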

[8] = tested on: IGROV-ET; test: SRB colorimetric cell growth inhibition assay, IGROV-ET (ET-743 resistant); settings: Homo sapiens, IGROV-ET; for GI50: GI=growth inhibition, read-out: GI50 IGROV-ET; for CC50: LC=cell killing (cytotoxic effect), read-out: LC50 IGROV-ET; for IC (TGI): TGI=total growth inhibition (cytostatic effect), read-out: TGI IGROV-ET
Summary of the method: as §1

[9] = tested on: K-562; test: SRB colorimetric cell growth inhibition assay, K-562; settings: Homo sapiens, K562, K-562; for GI50: GI=growth inhibition, read-out: GI50 K-562; for CC50: cell killing (cytotoxic effect), read-out: LC50 K-562; for IC (TGI): total growth inhibition (cytostatic effect), read-out: TGI K-562
Summary of the method: as §1

[10] = tested on: DU-145; test: SRB colorimetric cell growth inhibition assay, DU-145; settings: Homo sapiens, DU-145, DU-145; for GI50: GI=growth inhibition, read-out: GI50 DU-145; for CC50: LC=cell killing (cytotoxic effect), read-out: LC50 DU-145; for IC (TGI): TGI=total growth inhibition (cytostatic effect), read-out: TGI DU-145
Summary of the method: as §1

[11] = tested on: HT-29; test: SRB colorimetric cell growth inhibition assay, HT-29; settings: Homo sapiens, HT-29, HT-29; for GI50: GI=growth inhibition, read-out: GI50 HT-29; for CC50: cell killing (cytotoxic effect), read-out: LC50 HT-29; for IC (TGI): total growth inhibition (cytostatic effect), read-out: TGI HT-29
Summary of the method: as §1

[12] = tested on: SK-MEL-28; test: SRB colorimetric cell growth inhibition assay, SK-MEL-28; settings: Homo sapiens, SK-MEL-28, MEL-28; for GI50: GI=growth inhibition, read-out: GI50 MEL-28; for CC50: LC=cell killing (cytotoxic effect), read-out: LC50 MEL-28; for IC (TGI): TGI=total growth inhibition (cytostatic effect), read-out: TGI MEL-28
Summary of the method: as §1

[13] = SRB colorimetric cell growth inhibition assay, H-MEC-1; settings: human, H-MEC-1 cells, H-MEC-1; LC=cell killing (cytotoxic effect); read-out: LC50 H-MEC-1
Summary of the method: as §2

[14] = tested on: H-MEC-1; test: as above; settings: Homo sapiens, HMEC-1, H-MEC-1; for GI50: GI=growth inhibition; for IC (TGI): TGI=total growth inhibition (cytostatic effect), read-out: TGI H-MEC-1
Summary of the method: as §2

[15] = tested on: IGROV; test: SRB colorimetric cell growth inhibition assay, IGROV; settings: Homo sapiens, IGROV; for GI50: GI=growth inhibition, read-out: GI50 IGROV; for CC50: LC=cell killing (cytotoxic effect), read-out: LC50 IGROV; for IC (TGI): TGI=total growth inhibition (cytostatic effect), read-out: TGI IGROV
Summary of the method: as §1

COc1cc(-c2c3n(c4c(=O)oc5cc(OC(=O)c6cc(F)c(F)c(F)c6F)c(OC)cc5c24)CCc2c-3cc(OC)c(OC)c2OC(=O)c2cc(F)c(F)c(F)c2F)ccc1OC(=O)c1cc(F)c(F)c(F)c1F [Compound 99]
GI50 [1]: 9.44 µM
CC50 [1]: 9.44 µM
IC (TGI) [1]: 9.44 µM
GI50 [2]: 9.44 µM
CC50 [2]: 9.44 µM
IC (TGI) [2]: 9.44 µM
GI50 [3]: 9.44 µM
CC50 [3]: 9.44 µM
IC (TGI) [3]: 9.44 µM
GI50 [4]: 9.44 µM
CC50 [4]: 9.44 µM
IC (TGI) [4]: 9.44 µM
GI50 [5]: 4.46 µM
CC50 [5]: 9.44 µM
IC (TGI) [5]: 8.19 µM
GI50 [6]: 9.44 µM
CC50 [6]: 9.44 µM
IC (TGI) [6]: 9.44 µM
GI50 [7]: 9.44 µM
CC50 [7]: 9.44 µM
IC (TGI) [7]: 9.44 µM
GI50 [8]: 9.44 µM
CC50 [8]: 9.44 µM
IC (TGI) [8]: 9.44 µM
GI50 [9]: 0.972 µM
CC50 [9]: 2.26 µM
IC (TGI) [9]: 1.48 µM
GI50 [10]: 9.44 µM
CC50 [10]: 9.44 µM
IC (TGI) [10]: 9.44 µM
GI50 [11]: 9.44 µM
CC50 [11]: 9.44 µM
IC (TGI) [11]: 9.44 µM
GI50 [12]: 9.44 µM
CC50 [12]: 9.44 µM
IC (TGI) [12]: 9.44 µM
CC50 [13]: 7.42 µM
GI50 [14]: 4.06 µM
IC (TGI) [14]: 5.48 µM
GI50 [15]: 3.07 µM
CC50 [15]: 9.44 µM
IC (TGI) [15]: 9.44 µM

COc1cc(-c2c3c4cc(OC)c(OC(C)C)cc4oc(=O)c3n3ccc4c(OC(C)C)c(OC)c(OC)c(COS(C)(=O)=O)c4c23)ccc1OC(C)C [Compound 101]
GI50 [1]: 13.1 µM
CC50 [1]: 13.1 µM
IC (TGI) [1]: 13.1 µM
GI50 [2]: 13.1 µM
CC50 [2]: 13.1 µM
IC (TGI) [2]: 13.1 µM
GI50 [3]: 13.1 µM
CC50 [3]: 13.1 µM
IC (TGI) [3]: 13.1 µM
GI50 [4]: 13.1 µM
CC50 [4]: 13.1 µM
IC (TGI) [4]: 13.1 µM
GI50 [5]: 8.25 µM
CC50 [5]: 13.1 µM
IC (TGI) [5]: 13.1 µM
GI50 [6]: 13.1 µM
CC50 [6]: 13.1 µM
IC (TGI) [6]: 13.1 µM
GI50 [7]: 0.791 µM
CC50 [7]: 5.71 µM
IC (TGI) [7]: 2.34 µM
GI50 [8]: 13.1 µM
CC50 [8]: 13.1 µM
IC (TGI) [8]: 13.1 µM
GI50 [9]: 2.19 µM
CC50 [9]: 5.73 µM
IC (TGI) [9]: 3.53 µM
GI50 [10]: 13.1 µM
CC50 [10]: 13.1 µM
IC (TGI) [10]: 13.1 µM
GI50 [11]: 13.1 µM
CC50 [11]: 13.1 µM
IC (TGI) [11]: 13.1 µM
GI50 [12]: 13.1 µM
CC50 [12]: 13.1 µM
IC (TGI) [12]: 13.1 µM
CC50 [13]: 10.5 µM
GI50 [14]: 4.66 µM
IC (TGI) [14]: 6.99 µM
GI50 [15]: 11.9 µM
CC50 [15]: 13.1 µM
IC (TGI) [15]: 13.1 µM

COc1cc(-c2c3n(c4c(=O)oc5cc(OC(=O)[C@@H](N)Cc6ccccc6)c(OC)cc5c24)CCc2cc(OC(=O)[C@@H](N)Cc4ccccc4)c(OC)cc2-3)ccc1OC(=O)[C@@H](N)Cc1ccccc1 [Compound 115]
GI50 [1]: 1.65 µM
CC50 [1]: 5.87 µM
IC (TGI) [1]: 3.11 µM
GI50 [2]: 2.47 µM
CC50 [2]: 7.78 µM
IC (TGI) [2]: 7.78 µM
GI50 [3]: 1.76 µM
CC50 [3]: 7.78 µM
IC (TGI) [3]: 4.78 µM
GI50 [4]: 0.703 µM
CC50 [4]: 4.41 µM
IC (TGI) [4]: 1.82 µM
GI50 [5]: 0.67 µM
CC50 [5]: 3.87 µM
IC (TGI) [5]: 1.67 µM
GI50 [6]: 1.87 µM
CC50 [6]: 7.53 µM
IC (TGI) [6]: 3.75 µM
GI50 [7]: 1.1 µM
CC50 [7]: 5.13 µM
IC (TGI) [7]: 2.38 µM
GI50 [8]: 1.7 µM
CC50 [8]: 7.78 µM
IC (TGI) [8]: 5.38 µM
GI50 [9]: 0.536 µM
CC50 [9]: 7.78 µM
IC (TGI) [9]: 2.47 µM
GI50 [10]: 1.63 µM
CC50 [10]: 7.78 µM
IC (TGI) [10]: 4.29 µM
GI50 [11]: 2.92 µM
CC50 [11]: 7.78 µM
IC (TGI) [11]: 6.46 µM
GI50 [12]: 1.45 µM
CC50 [12]: 4.83 µM
IC (TGI) [12]: 2.65 µM
CC50 [13]: 2.96 µM
GI50 [14]: 0.213 µM
IC (TGI) [14]: 0.452 µM
GI50 [15]: 1.07 µM
CC50 [15]: 6.26 µM
IC (TGI) [15]: 2.58 µM

COc1cc(-c2c3n(c4c(=O)oc5cc(OC(=O)[C@@H]6CCCN6)c(OC)cc5c24)CCc2c-3cc(OC)c(OC)c2OC(=O)[C@@H]2CCCN2)ccc1OC(=O)[C@@H]1CCCN1 [Compound 118]
GI50 [1]: 1.8 µM
CC50 [1]: 6.99 µM
IC (TGI) [1]: 3.55 µM
GI50 [2]: 1.08 µM
CC50 [2]: 5.35 µM
IC (TGI) [2]: 2.4 µM
GI50 [3]: 0.45 µM
CC50 [3]: 3.86 µM
IC (TGI) [3]: 1.3 µM
GI50 [4]: 1.35 µM
CC50 [4]: 5.43 µM
IC (TGI) [4]: 2.7 µM
GI50 [5]: 0.987 µM
CC50 [5]: 4.76 µM
IC (TGI) [5]: 2.16 µM
GI50 [6]: 0.639 µM
CC50 [6]: 6.25 µM
IC (TGI) [6]: 2.04 µM
GI50 [7]: 2.02 µM
CC50 [7]: 8.22 µM
IC (TGI) [7]: 4.08 µM
GI50 [8]: 0.876 µM
CC50 [8]: 6.17 µM
IC (TGI) [8]: 2.33 µM
GI50 [9]: 1.17 µM
CC50 [9]: 6.57 µM
IC (TGI) [9]: 2.77 µM
GI50 [10]: 1.6 µM
CC50 [10]: 5.64 µM
IC (TGI) [10]: 3 µM
GI50 [11]: 1.92 µM
CC50 [11]: 6.59 µM
IC (TGI) [11]: 3.56 µM
GI50 [12]: 1.65 µM
CC50 [12]: 5.49 µM
IC (TGI) [12]: 3 µM
CC50 [13]: 6.45 µM
GI50 [14]: 1.45 µM
IC (TGI) [14]: 3.06 µM
GI50 [15]: 0.97 µM
CC50 [15]: 5.47 µM
IC (TGI) [15]: 2.3 µM

From patent US7396837B2, “Antitumoral analogs of lamellarins” (Pharma Mar, S.A.U., priority 2002, dated 2008)
